Experimental data as given in ChEMBL document CHEMBL1123338, “Synthesis and structure-activity relationship studies of a series of 5-aryl-4,6-dithianonanedioic acids and related compounds: a novel class of leukotriene antagonists” (J Med Chem, 1986).

What was measured:
[1] = molecular target: Cysteinyl leukotriene receptor (Cavia porcellus); test: Compound is evaluated for its ability to inhibit [3H]LTD4 binding to Cysteinyl leukotriene D4 receptor in guinea pig lung membranes
[2] = system: Cysteinyl leukotriene receptor (Cavia porcellus); test: In vitro ability to antagonize a leukotriene D4 induced contraction of guinea pig trachea.

Row | Ki [1] | -Log KB [2] | Structure (SMILES)
1 | 0.141 µM | 6.8 | C#CCCCCCCCCCCc1ccccc1C(SCCC(=O)O)SCCC(=O)O
2 | 17.578 µM | – | CCCCCCCCCCCCc1ccccc1C1S[C@H](C(=O)O)[C@H](C(=O)O)S1 (stereo in doubt; 61)
3 | 2.515 µM | 5.9 | CCCCCCCCCCC#Cc1ccccc1C(SCCC(=O)O)SCCC(=O)O
4 | 2.337 µM | – | CCCCCCCCCCCCc1ccccc1C(CCCC(=O)O)CCCC(=O)O
5 | 0.53 µM | – | CCCCCCCCCCCCCOc1cccc(C(SCCC(=O)O)SCCC(=O)O)c1
6 | 0.287 µM | 6.4 | CCCCCCCCCCCOc1ccccc1C(SCCC(=O)O)SCCC(=O)O
7 | 0.646 µM | 6 | CCCCCCCCCCCSc1ccccc1C(SCCC(=O)O)SCCC(=O)O
8 | 1.18 µM | 6.5 | CCCCCCCCCCc1ccccc1C(SCCC(=O)O)SCCC(=O)O
9 | 0.423 µM | 5.8 | CCCCCCCCCCCCc1ccccc1C(SCCC(=O)O)[S+]([O-])CCC(=O)O (configuration not stated)
10 | 0.401 µM | – | CCCCCCCCCCCCc1ccccc1C1S[C@@H](C(=O)O)[C@H](C(=O)O)S1
11 | 0.147 µM | 6.2 | O=C(O)CCSC(SCCC(=O)O)c1ccccc1CCCCCCCCCCCC(F)(F)F
12 | 1.246 µM | – | CCCCCCCCCCCCCCc1ccccc1C(SCCC(=O)O)SCCC(=O)O
13 | 5.674 µM | 5.2 | CCCCCCCCc1ccccc1C(SCCC(=O)O)SCCC(=O)O
14 | 3.672 µM | – | CCCCCCCCCCCCc1cccc(C)c1C(SCCC(=O)O)SCCC(=O)O
15 | 0.934 µM | – | CCCCCCCCCCCCc1ccccc1C(SCCCC(=O)O)SCCCC(=O)O
16 | 0.846 µM | 5.9 | CCCCCCCCCCCCc1ccccc1C(SCC(=O)O)SCC(=O)O
17 | 0.445 µM | 6 | CCCCCCCCCCCCc1ccccc1C(SCCC(=O)O)SCCC(=O)O
18 | 0.491 µM | 5.8 | CCCCCCCCCC/C=C/c1ccccc1C(SCCC(=O)O)SCCC(=O)O

The next lines start with the compound.

Row | Structure (SMILES) | Ki [1] | -Log KB [2]
19 | CCCCCCCCCCC[C@@H]1CC(SCCC(=O)O)(SCCC(=O)O)c2ccccc21 | 2.092 µM | –
20 | CCCCCCCCCCCOc1ccc(Br)cc1C(SCCC(=O)O)SCCC(=O)O | 0.624 µM | 6
21 | CCCCc1ccc(CCCCc2ccccc2C(SCCC(=O)O)SCCC(=O)O)cc1 | 4.228 µM | 5.6
22 | CCCCCCCCCCC#CC(SCCCC(=O)O)SCCCC(=O)O | – | 5.6
23 | CCCCCCCCCCCOc1ccc([N+](=O)[O-])cc1C(SCCC(=O)O)SCCC(=O)O | 0.303 µM | 6.1
24 | CCCCC/C=C/C/C=C/COc1cccc(C(SCCC(=O)O)SCCC(=O)O)c1 | 0.187 µM | 6.2
25 | O=C(O)CCSC(SCCC(=O)O)c1ccccc1OCCCCCCc1ccccc1 | 11.526 µM | 5.3
26 | CCCCCCCCCCCOc1cccc(C(SCCC(=O)O)SCCC(=O)O)c1 | 0.078 µM | 6.1
27 | CCCCCCCCCCCCCOc1ccc(C(SCCC(=O)O)SCCC(=O)O)cc1 | > 20 µM | –
28 | CCCCCCCCCCCOc1ccc(OC)cc1C(SCCC(=O)O)SCCC(=O)O | 0.579 µM | 5.9
29 | O=C(O)CCSC(SCCC(=O)O)c1ccccc1OCCCC1CCCCC1 | 1.009 µM | –
30 | CCCCc1ccccc1C(SCCC(=O)O)SCCC(=O)O | > 20 µM | –
31 | CCCCCCCCCCCOc1ccc(O)cc1C(SCCC(=O)O)SCCC(=O)O | 0.156 µM | 6
32 | CCCCC/C=C/C/C=C/COc1ccccc1C(SCCC(=O)O)SCCC(=O)O | 1.002 µM | 6
33 | O=C(O)CCSC(SCCC(=O)O)c1ccccc1OCCCCCCCCCO | > 20 µM | –
34 | CCCCCCCCCCCCC#CC(SCCC(=O)O)SCCC(=O)O | – | 5.7

Row | Structure (SMILES) | Ki [1] | -Log KB [2]
35 | CCCCCCCCCC/C=C\c1ccccc1C(SCCC(=O)O)SCCC(=O)O | 1.38 µM | –
36 | CCOCCOCCOCCOc1ccccc1C(SCCC(=O)O)SCCC(=O)O | > 20 µM | –
37 | O=C(O)CCSC(SCCC(=O)O)c1ccccc1CCCCCCCCC1CCCCC1 | 1.958 µM | 5.5
38 | O=C(O)CCSC(SCCC(=O)O)c1cc(C(F)(F)F)ccc1CCCCCCCCc1ccccc1 | 0.476 µM | 7
39 | CCCCCCCCCOc1ccccc1C(SCCC(=O)O)SCCC(=O)O | 4.094 µM | 5.8
40 | CCCCCCCCCCCOc1ccc(C(SCCC(=O)O)SCCC(=O)O)cc1 | > 20 µM | –
41 | CCCCCCCCC#CC(SCCC(=O)O)SCCC(=O)O | – | 5
42 | CCCCCCCCCOc1cccc(C(SCCC(=O)O)SCCC(=O)O)c1 | 0.624 µM | 6
43 | CCCCCCCCCCCOc1ccccc1C(C)(SCCC(=O)O)SCCC(=O)O | > 20 µM | 5.6
44 | CCCCCCCCCCC[C@@H]1CCC(SCCC(=O)O)(SCCC(=O)O)c2ccccc21 | > 20 µM | –
45 | CCCCCCCCCCc1ccc(C(SCCC(=O)O)SCCC(=O)O)cc1 | 7.565 µM | –
46 | CCCCCCCCCCCCC(SCCC(=O)O)SCCC(=O)O | – | 5.2
47 | CCCc1c(OCCCCCOc2ccccc2C(SCCC(=O)O)SCCC(=O)O)ccc(C(C)=O)c1O | 3.149 µM | 6.6
48 | O=C(O)CCSC(SCCC(=O)O)c1cccc(CCCCCCCCc2ccccc2)c1 | 0.43 µM | 6
49 | CCCCCCCCCCC#CC(SCC(=O)O)SCC(=O)O | – | 5.3
50 | CCCCCCCCCCC#CC(SCCC(=O)O)SCCC(=O)O | – | 6.1
